The values that follow come from patent publication US9518018B2, “3-alkoxy, thioalkyl and amino-4-amino-6-(substituted)picolinates and their use as herbicides” (Dow AgroSciences LLC, priority 2011, dated 2016).

Holding throughout (assay): Post-Emergent Test I herbicidal activity
Common to all, as to type: in vivo

The test system of experiment [1] is CHEAL: lambsquarters (Chenopodium album). The settings on record: Chenopodium album, post-emergence, 336 h, read-out: Visual Growth Reduction (%)-14 Days after Application CHEAL; for pest or weed control at 140 g/ha: Table 3, 140 g ai/ha. The procedure:
(§1) Seeds or nutlets of the desired test plant species were planted in Sun Gro Metro-Mix® 360 planting mixture, which typically has a pH of 6.0 to 6.8 and an organic matter content of about 30 percent, in plastic pots with a surface area of 64 square centimeters. When required to ensure good germination and healthy plants, a fungicide treatment and/or other chemical or physical treatment was applied. The plants were grown for 7-21 d in a greenhouse with an approximate 15 h photoperiod which was maintained at about 23-29° C. during the day and 22-28° C. during the night. Nutrients and water were added on a regular basis and supplemental lighting was provided with overhead metal halide 1000-Watt lamps as necessary. The plants were employed for testing when they reached the first or second true leaf stage.
(§2) A weighed amount, determined by the highest rate to be tested, of each test compound was placed in a 25 mL glass vial and was dissolved in 4 mL of a 97:3 v/v mixture of acetone and DMSO to obtain concentrated stock solutions. […] The concentrated stock solutions obtained were diluted with 20 mL of an aqueous mixture containing acetone, water, isopropyl alcohol, DMSO, Atplus 411F crop oil concentrate, and Triton® X-155 surfactant in a 48.5:39:10:1.5:1.0:0.02 v/v ratio to obtain spray solutions containing the highest application rates. Additional application rates were obtained by serial dilution of 12 mL of the high rate solution into a solution containing 2 mL of 97:3 v/v mixture of acetone and DMSO and 10 mL of an aqueous mixture containing acetone, water, isopropyl alcohol, DMSO, Atplus 411F crop oil concentrate, and Triton X-155 surfactant in a 48.5:39:10:1.5:1.0:0.02 v/v ratio to obtain ½×, ¼×, ⅛× and 1/16× rates of the high rate. Compound requirements are based upon a 12 mL application volume at a rate of 187 liters per hectare (L/ha). Formulated compounds were applied to the plant material with an overhead Mandel track sprayer equipped with 8002E nozzles calibrated to deliver 187 L/ha over an application area of 0.503 square meters at a spray height of 18 inches (43 cm) above the average plant canopy height. Control plants were sprayed in the same manner with the solvent blank.
(§3) The treated plants and control plants were placed in a greenhouse as described above and watered by subirrigation to prevent wash-off of the test compounds. After 14 d, the condition of the test plants as compared with that of the untreated plants was determined visually and scored on a scale of 0 to 100 percent where 0 corresponds to no injury and 100 corresponds to complete kill.
(§4) By applying the well-accepted probit analysis as described by J. Berkson in Journal of the […], 48, 565 (1953) and by D. Finney in “Probit Analysis” Cambridge University Press (1952), the above data can be used to calculate GR20, GR50 and GR80 values, which are defined as growth reduction factors that correspond to the effective dose of herbicide required to kill or control 20 percent, 50 percent or 80 percent, respectively, of a target plant.

In the next experiment the test system is ZEAMX: corn (Zea mays). Conditions: Zea mays, post-emergence, 336 h, read-out: Visual Growth Reduction (%)-14 Days after Application ZEAMX; for pest or weed control at 140 g/ha: Table 3, 140 g ai/ha. The procedure: as §1, §2, §3, §4
The subject of experiment [2] is ABUTH: velvetleaf (Abutilon theophrasti). Conditions: Abutilon theophrasti, post-emergence, 336 h, read-out: Visual Growth Reduction (%)-14 Days after Application ABUTH; for pest or weed control at 140 g/ha: Table 3, 140 g ai/ha. As to the method: as §1, §2, §3, §4
The subject of experiment [3] is CYPES: yellow nutsedge (Cyperus esculentus). The settings on record: post-emergence, 336 h, read-out: Visual Growth Reduction (%)-14 Days after Application CYPES; for pest or weed control at 140 g/ha: Table 3, 140 g ai/ha. The procedure:
as §1, §2, §3, §4

For experiment [4], the system named is ECHCG: barnyardgrass (Echinochloa crus-galli). The settings on record: post-emergence, 336 h, read-out: Visual Growth Reduction (%)-14 Days after Application ECHCG; for pest or weed control at 140 g/ha: Table 3, 140 g ai/ha. As to the method:
as §1, §2, §3, §4

In experiment [5] the test system is EPHHL: wild poinsettia (Euphorbia heterophylla). The settings on record: post-emergence, 336 h, read-out: Visual Growth Reduction (%)-14 Days after Application EPHHL; for pest or weed control at 140 g/ha: Table 3, 140 g ai/ha. As to the method: as §1, §2, §3, §4
The subject of experiment [6] is ORYSA: rice (Oryza sativa). The settings on record: post-emergence, 336 h, read-out: Visual Growth Reduction (%)-14 Days after Application ORYSA; for pest or weed control at 140 g/ha: Table 3, 140 g ai/ha. As to the method:
as §1, §2, §3, §4

On to `COc1c(N)cc(C(C)(F)F)nc1C(=O)O` [Compound 82, 4-amino-6-(1,1-difluoroethyl)-3-methoxypicolinic acid], for which the pest or weed control at 140 g/ha in experiment [1] is 85%; in the experiment with ZEAMX: corn (Zea mays) it was 0%; in experiment [2] it was 20%; in experiment [3] it was 0%; in experiment [4], 0%; in experiment [5], 80%. The pest or weed control at 140 g/ha in experiment [6] is 0%.

`COC(=O)c1nc(-c2ccc(Cl)cc2F)cc(NC(C)=O)c1OC` [Compound 4, Methyl 4-acetamido-6-(4-chloro-2-fluorophenyl)-3-methoxypicolinate]: the pest or weed control at 140 g/ha in experiment [1] worked out at 100%; in the experiment on ZEAMX: corn (Zea mays) it was 0%; in experiment [2] it was 80%; in experiment [3], 0%; in experiment [4], 0%; in experiment [5] it was 100%. For the same compound, the pest or weed control at 140 g/ha in experiment [6] was found to be 0%.

`COC(=O)c1nc(-c2ccc(OC)nc2)c(F)c(N)c1OC` [Compound 75, methyl 4-amino-3-fluoro-5,6′-dimethoxy-[2,3′-bipyridine]-6-carboxylate]: the pest or weed control at 140 g/ha amounted to 85% in experiment [1]; 85% in the experiment with ZEAMX: corn (Zea mays); 90% in experiment [2]; 95% in experiment [3]; 0% in experiment [4]; 85% in experiment [5]. Also, in experiment [6], the pest or weed control at 140 g/ha came out at 0%.

For the compound `COC(=O)c1nc(-c2ccc(C#N)cc2)c(F)c(N)c1OC` [Compound 41], the pest or weed control at 140 g/ha in experiment [1] worked out at 100%; in the experiment with ZEAMX: corn (Zea mays), 70%; in experiment [2], 80%; in experiment [3], 100%; in experiment [4], 0%; in experiment [5], 100%. Also, the pest or weed control at 140 g/ha in experiment [6] was determined as 0%.

For `COc1c(C(=O)O)nc(Cl)c(F)c1N` [Compound 51], the pest or weed control at 70 g/ha in experiment [1] (Table 3, 70 g ai/ha) was 90%; with ZEAMX: corn (Zea mays) (Table 3, 70 g ai/ha), 0%; in experiment [2] (Table 3, 70 g ai/ha), 0%; in experiment [3] (Table 3, 70 g ai/ha), 0%; in experiment [4] (Table 3, 70 g ai/ha) it was 0%; in experiment [5] (Table 3, 70 g ai/ha) it was 100%. In addition, the pest or weed control at 70 g/ha in experiment [6] (Table 3, 70 g ai/ha) is 0%.

As to `COC(=O)c1nc(-c2ccc(Br)cc2F)c(F)c(N)c1OC` [Compound 22], the pest or weed control at 140 g/ha in experiment [1] is 100%; with ZEAMX: corn (Zea mays), 70%; in experiment [2], 60%; in experiment [3], 50%; in experiment [4] it was 90%; in experiment [5], 100%. The pest or weed control at 140 g/ha in experiment [6] was 0%.

Regarding `C=Cc1nc(C(=O)O)c(OC)c(N)c1F` [Compound 95, 4-amino-5-fluoro-3-methoxy-6-vinylpicolinic acid], the pest or weed control at 140 g/ha is 60% in experiment [1]; 0% with ZEAMX: corn (Zea mays); 0% in experiment [2]; 0% in experiment [3]; 0% in experiment [4]; 30% in experiment [5]. Moreover, the pest or weed control at 140 g/ha in experiment [6] was 0%.

Turning to `COC(=O)c1nc(-c2ccc(C3CC3)nc2)c(F)c(N)c1OC` [Compound 76, methyl 4-amino-6′-cyclopropyl-3-fluoro-5-methoxy-[2,3′-bipyridine]-6-carboxylate], the pest or weed control at 140 g/ha amounted to 80% in experiment [1]; 50% with ZEAMX: corn (Zea mays); 85% in experiment [2]; 95% in experiment [3]; 0% in experiment [4]; 97% in experiment [5]. For the same compound, in experiment [6], the pest or weed control at 140 g/ha was 0%.

Turning to `COc1c(C(=O)O)nc(-c2ccc(I)cc2)c(F)c1N` [Compound 55], the pest or weed control at 132 g/ha worked out at 90% in experiment [1] (Table 3, 132 g ai/ha); 80% with ZEAMX: corn (Zea mays) (Table 3, 132 g ai/ha); 85% in experiment [2] (Table 3, 132 g ai/ha); 100% in experiment [3] (Table 3, 132 g ai/ha); 100% in experiment [4] (Table 3, 132 g ai/ha); 100% in experiment [5] (Table 3, 132 g ai/ha). The pest or weed control at 132 g/ha in experiment [6] (Table 3, 132 g ai/ha) is 10%.

On to `Nc1cc(-c2ccc(Cl)cc2F)nc(C(=O)O)c1OCC(F)(F)F` [Compound 70], for which the pest or weed control at 280 g/ha in experiment [1] (Table 3, 280 g ai/ha) turned out to be 25%; in the experiment on ZEAMX: corn (Zea mays) (Table 3, 280 g ai/ha) it was 75%; in experiment [2] (Table 3, 280 g ai/ha), 50%; in experiment [3] (Table 3, 280 g ai/ha), 85%; in experiment [4] (Table 3, 280 g ai/ha), 0%; in experiment [5] (Table 3, 280 g ai/ha), 100%. Further, the pest or weed control at 280 g/ha in experiment [6] (Table 3, 280 g ai/ha) was determined as 0%.
